Test results from patent US8865935B2, “Purification methods for betulonic acid and Boc-lysinated betulonic acid, and organic synthesis of betulonic acid amides with piperazine derivatives” (priority 2011, dated 2014).

Columns and labels:
[1] = test system: Stenotrophomonas maltophilia KCTC 1773T; test: antibacterial test, paper disc diffusion method; format: cell-based; settings: for Antibacterial zone of inhibition (mm) S. maltophila: paper disc (diameter 8 mm) wetted with 60 μL of 1 mg/mL sample in DMSO on agar plate, test repeated three times
Procedure: (§1) An antibacterial test was carried out using the above-mentioned paper disc diffusion method. Betulonic acid amide was dissolved in DMSO to make a sample having a concentration of 1 mg/mL. A filter paper (diameter: 8 mm, manufactured by Advantec, Toyo Roshi Kaisha, Japan) wetted with 60 μL of the sample was attached to an agar plate, and then a circumference, around which bacteria were not cultivated, was measured. DMSO was used as a negative control, and gentamicin was used as a positive control. The antibacterial test was repeatedly carried out three times.

[2] = test system: Ochrobactrum intermedium KACC 11952T; test: antibacterial test, paper disc diffusion method; format: cell-based; settings: paper disc (diameter 8 mm) wetted with 60 μL of 1 mg/mL sample in DMSO on agar plate, test repeated three times
Procedure: as §1

[3] = test system: Ochrobactrum anthropi KCTC 22833T; test: antibacterial test, paper disc diffusion method; format: cell-based; settings: paper disc (diameter 8 mm) wetted with 60 μL of 1 mg/mL sample in DMSO on agar plate, test repeated three times
Procedure: as §1

[4] = test system: Stenotrophomonas nitritireducens KACC 10891T; test: antibacterial test, paper disc diffusion method; format: cell-based; settings: paper disc (diameter 8 mm) wetted with 60 μL of 1 mg/mL sample in DMSO on agar plate; test repeated three times
Procedure: as §1

four kinds of bacteria = test: antibacterial test, paper disc diffusion method, all strains; format: cell-based; settings: from Table 3, 1 mg/mL sample
Procedure: An antibacterial test was carried out using the above-mentioned paper disc diffusion method. Betulonic acid amide was dissolved in DMSO to make a sample having a concentration of 1 mg/mL. A filter paper (diameter: 8 mm, manufactured by Advantec, Toyo Roshi Kaisha, Japan) wetted with 60 μL of the sample was attached to an agar plate, and then a circumference, around which bacteria were not cultivated, was measured. DMSO was used as a negative control, and gentamicin was used as a positive control. The antibacterial test was repeatedly carried out three times. Ochrobactrum anthropi KCTC 22833T and Stenotrophomonas maltophilia KCTC 1773T used in the antibacterial test were purchased from Korean Collection for Type Culture (KCTC), and Ochrobactrum intermedium KACC 11952T and Stenotrophomonas nitritireducens KACC 10891T used in the antibacterial test were purchased from Korean Agricultural Culture Collection (KACC). The diameters of clear circular zones of samples 2 to 7 of FIG. 1 were measured by a paper disc diffusion method, and compared to that of gentamicin. […] Particularly, it can be ascertained that the activity of sample 2 (4-(3′,4′-dichlorophenylpiperazin-1-yl) amide betulonic acid) and the activity of sample 7 (4-(4′-trifluoromethylphenylpiperazin-1-yl) amide betulonic acid) are highest.

Row | Compound | Antibacterial zone of inhibition (mm) S. maltophila [1] [mm] | Antibacterial zone of inhibition (mm) O. intermedium [2] [mm] | Antibacterial zone of inhibition (mm) O. anthropi [3] [mm] | Antibacterial zone of inhibition (mm) S. nitritireducens [4] [mm] | further results
1 | 4-(4′-trifluoromethylphenylpiperazine-1-yl) amide betulonic acid [Compound 6 of FIG. 1] | 14 | 14 | 15 | 16 | –
2 | C=C(C)[C@@H]1CC[C@]2(C(=O)N3CCN(c4ccc(F)cc4)CC3)CC[C@]3(C)C(CC[C@@H]4[C@@]5(C)CCC(=O)C(C)(C)C5CC[C@]43C)[C@@H]12 (stereo partly drawn) [Compound 1 of FIG. 1, 4-(4′-fluorophenylpiperazine-1-yl) amide betulonic acid] | – | – | – | 11 | melting point: 151 to 152 °C; growth inhibition effect (four kinds of bacteria): growth inhibition effect only to Stenotrophomonas nitritireducens
3 | C=C(C)[C@@H]1CC[C@]2(C(=O)N3CCN(c4ccc(Cl)c(Cl)c4)CC3)CC[C@]3(C)C(CC[C@@H]4[C@@]5(C)CCC(=O)C(C)(C)C5CC[C@]43C)[C@@H]12 (stereo partly drawn) [Compound 2 of FIG. 1, 4-(3′,4′-dichlorophenylpiperazine-1-yl) amide betulonic acid] | – | – | – | 15 | melting point: 182 to 183 °C; activity (ranking among the samples) (four kinds of bacteria): highest; zone of inhibition at 1000 µg/mL ([1]; Stenotrophomonas maltophilia, KCTC1773T, read-out: Antibacterial zone of inhibition (mm) S. maltophila): 13 mm; zone of inhibition at 1000 µg/mL ([2]; Brucella intermedia, KACC11952T, read-out: Antibacterial zone of inhibition (mm) O. intermedium): 14 mm; zone of inhibition at 1000 µg/mL ([3]; Brucella anthropi, KCTC22833T, read-out: Antibacterial zone of inhibition (mm) O. anthropi): 15 mm
4 | C=C(C)[C@@H]1CC[C@]2(C(=O)N3CCN(c4ccccn4)CC3)CC[C@]3(C)[C@H](CC[C@@H]4[C@@]5(C)CCC(=O)C(C)(C)[C@@H]5CC[C@]43C)[C@@H]12 [Compound 4 of FIG. 1, 4-(2-pyridylpiperazine-1-yl) amide betulonic acid] | 10 | 10 | – | – | –
5 | C=C(C)C1CCC2(C(=O)N3CCN(c4ncccn4)CC3)CCC3(C)C(CCC4C5(C)CCC(=O)C(C)(C)C5CCC43C)C12 (stereo not drawn) [Compound 5 of FIG. 1, 4-(2-pyrimidylpiperazine-1-yl) amide betulonic acid] | 10 | 10 | 13 | 11 | –
6 | C=C(C)[C@@H]1CC[C@]2(C(=O)N3CCN(c4ccc(C(F)(F)F)cc4)CC3)CC[C@]3(C)C(CC[C@@H]4[C@@]5(C)CCC(=O)C(C)(C)C5CC[C@]43C)[C@@H]12 (stereo partly drawn) [Compound 6 of FIG. 1, 4-(4′-trifluoromethylphenylpiperazine-1-yl) amide betulonic acid] | – | – | – | – | activity (ranking among the samples) (four kinds of bacteria): highest
7 | gentamicin [reference compound] | 16 | 17 | 19 | 21 | –
